Experimental data as given in patent US5354748A, “Oral antibacterial compositions and method for the improvement of gastrointestinal absorption of penem or carbapenem antibiotics” (Suntory Limited, priority 1991, dated 1994).

What was measured:
[1] = system: epithelial cells isolated from the small intestine of a rat; assay: Degradation of penem in epithelial cells isolated from rat small intestine (free acid of penem remaining by HPLC, with/without cilastatin); assay type: in vitro ADME; conditions: cilastatin 35 μg/ml; 37° C., 60 minutes
Description: Degradation of penems in epithelial cells isolated from the small intestine of a rat was investigated by the following method. Namely, the epithelial cells were isolated from the small intestine of the rat by the citric acid method reported in The Journal of Biological Chemistry, 248, […] (1973).
After the resultant solution was incubated at 37° C. for 60 minutes, the free acid of the penem was measured by high performance liquid chromatography (HPLC).

in vivo = assay: in vivo; design: species or system Sprague-Dawley male rats; conditions: rat, intravenous penem; at each cilastatin dosage
Description: The blood was collected during the period of from 0.1 to 1.5 hours after the administration. The concentrations of the free acid of the penem in plasma samples were measured by high performance liquid chromatography (HPLC) to determine the area under the plasma concentration:time curve (AUC).

With `CC1(C)C[C@@H]1C(=O)N/C(=C\CCCCSC[C@H](N)C(=O)O)C(=O)O` [cilastatin, reference compound] the “Degradation of the penem carboxylate by addition of cilastatin” value [1] was “inhibited” and the “Area under the plasma concentration:time curve upon intravenous administration, compared with single administration” value (in vivo) was “not different”.
